# Results published in patent US20200392107A1, “CYCLIC AMINE DERIVATIVE AND MEDICAL USE THEREOF” (Toray Industries, Inc., priority 2018, published 2020).
# What was measured:
# [1] = target: T1, RORγ-LBD (GST-fused ligand-binding domain of RORγ) / coactivator TRAP220/DRIP-2 (Homo sapiens, UniProt P51449); experiment: Inhibitory effect on RORγ-coactivator binding (LanthaScreen TR-FRET RORγ Coactivator Assay); type: biochemical; details: at 33 μmol/L of the test compound; read-out: RORγ-coactivator binding inhibition rate (%)
# T1 construct: purchased Invitrogen
# T1 sequence (P51449 269-508 limits assumed): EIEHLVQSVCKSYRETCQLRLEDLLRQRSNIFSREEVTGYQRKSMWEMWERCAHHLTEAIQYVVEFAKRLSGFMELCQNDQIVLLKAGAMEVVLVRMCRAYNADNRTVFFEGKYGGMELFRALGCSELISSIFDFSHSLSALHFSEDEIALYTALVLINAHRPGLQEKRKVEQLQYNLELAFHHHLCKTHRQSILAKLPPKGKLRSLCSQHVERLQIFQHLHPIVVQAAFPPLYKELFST
# Experimental: The inhibitory effect of the cyclic amine derivative (I) or a pharmacologically acceptable salt thereof on the binding between a ligand-binding domain of RORγ (hereinafter referred to as RORγ-LBD) and a coactivator was evaluated using Invitrogen's LanthaScreen™ TR-FRET Retinoid-Related Orphan Receptor (ROR) gamma Coactivator Assay kit utilizing time-resolved fluorescence energy transfer (TR-FRET).
# A test compound was dissolved in DMSO and diluted with TR-FRET Coregulator Buffer D (Invitrogen) containing 5 mmol/L of DTT to have a final DMSO concentration of 1% before use. To each well of a 384-well black plate (Corning Inc.), 4 nmol/L of GST-fused RORγ-LBD (Invitrogen) diluted with the buffer mentioned above and the test compound were added. A well without addition of the test compound and without addition of GST-fused RORγ-LBD (background) and a well without addition of the test compound and with addition of GST-fused RORγ-LBD (control) were prepared. Next, 150 nmol/L of fluorescein-labeled TRAP220/DRIP-2 (Invitrogen) diluted with the buffer mentioned above and 32 nmol/L of terbium-labeled anti-GST antibody (Invitrogen) were added to each well. After incubating the plate at room temperature for 16 to 24 hours, the fluorescence at 495 nm and 520 nm when excited at 320 nm was measured for each well and the ratio (fluorescence value at 520 nm/fluorescence value at 495 nm) was calculated.
# The fold change with addition of the test compound (ratio with addition of the test compound/ratio of the background), the fold change of the control (ratio of the control/ratio of the background), and the fold change of the background (ratio of the background/ratio of the background) were calculated, and then the inhibition rate of binding between RORγ-LBD and a coactivator (hereinafter referred to as RORγ-coactivator binding inhibition rate) (%) was calculated from Formula (1):
# RORγ-coactivator binding inhibition rate (%)=(1−((Fold change with addition of the test compound)−(Fold change of the background))/((Fold change of the control)−(Fold change of the background)))×100 (1).
# [2] = tested on: IL-17 production in mouse splenocytes; experiment: Suppressive effect on IL-17 production by IL-23 stimulation in mouse splenocytes; type: cell-based; details: Splenocyte, 72 h, at 5 μmol/L of the test compound, human IL-23 10 ng/mL, cultured 3 days, read-out: IL-17 production inhibition rate (%)
# Experimental: Using mouse splenocytes, the suppressive effect of the cyclic amine derivative (I) or a pharmacologically acceptable salt thereof on IL-17 production by IL-23 stimulation was evaluated by a partially modified method mentioned in The Journal of Biological Chemistry, 2003, Vol. 278, No. 3, p. 1910-1914.
# A single cell suspension was prepared from the spleen of C57BL/6J mice (male or female, 6 to 30 weeks old) (Charles River Laboratories Japan, Inc. or CLEA Japan, Inc.) and splenocytes were prepared using Histopaque-1083 (Sigma-Aldrich Japan). The culture medium was used by adding 10% FBS (Gibco), 50 U/mL of penicillin-50 μg/mL of streptomycin (Gibco), 50 μmol/L of 2-mercaptoethanol (Gibco), and 100 U/mL of human IL-2 (Cell Science & Technology Institute, Inc.) to RPMI1640 medium (Gibco). A test compound was dissolved in DMSO and then diluted with the culture medium to have a final concentration of DMSO of 0.1% before use. Splenocytes (3×10^5 cells/well) prepared in the culture medium were seeded in wells of a 96-well flat-bottom plate (Corning Incorporated), the test compound and 10 ng/mL of human IL-23 (R & D systems, Inc.) were added thereto, and the cells were cultured at 37° C. under 5% CO2 for 3 days. A well without addition of human IL-23 and without addition of the test compound and a well with addition of human IL-23 and without addition of the test compound were prepared. After completion of the culture, the culture supernatant was collected and the IL-17 production amount in the supernatant was determined by ELISA method (R & D systems, Inc.).
# The IL-17 production inhibition rate (%) was calculated from Formula (2).
# IL-17 production inhibition rate (%)=(1−((IL-17 production amount with addition of IL-23 and with addition of the test compound)−(IL-17 production amount without addition of IL-23 and without addition of the test compound))/((IL-17 production amount with addition of IL-23 and without addition of the test compound)−(IL-17 production amount without addition of IL-23 and without addition of the test compound)))×100 (2).
inhibition at 33 µM [1] [%],SMILES,inhibition at 5 µM [2] [%]
87.9,"CC(=O)N1CCCC[C@@H]1C(=O)Nc1cc(Cl)c2c(c1)CCN2Cc1cccc(C(F)(F)F)c1 [Example 5, (R)-1-acetyl-N-(7-chloro-1-(3-(trifluoromethyl)benzyl)indolin-5-yl)piperidine-2-carboxamide]",87.5
94.3,"CC(=O)N1CCCC[C@@H]1C(=O)Nc1ccc2c(c1)CCCN2Cc1ccc(C(F)(F)F)cc1 [Example 2, (R)-1-acetyl-N-(1-(4-(trifluoromethyl)benzyl)-1,2,3,4-tetrahy-droquinolin-6-yl)piperidine-2-carboxamide]",98.4
99.8,"CC(=O)N1CCCCC1C(=O)Nc1cc(Cl)c2c(c1)CCN2Cc1ccc(C(F)(F)F)cc1 (centres unmarked) [Example 10, 1-acetyl-N-(7-chloro-1-(4-(trifluoromethyl)benzyl)indolin-5-yl)piperidine-2-carboxamide]",99.5
99.4,"CC(=O)N1CCCC[C@@H]1C(=O)Nc1cc(Cl)c2c(c1)CCN2Cc1ccc(OC(F)(F)F)cc1 [Example 8, (R)-1-acetyl-N-(7-chloro-1-(4-(trifluoromethoxy)benzyl)in-dolin-5-yl)piperidine-2-carboxamide]",100
99.5,"CC(=O)N1CCCC[C@@H]1C(=O)Nc1cc(Cl)c2c(c1)CCN(Cc1ccc(C(F)(F)F)cc1)C2 [Example 3, (R)-1-acetyl-N-(8-chloro-2-(4-(trifluoromethyl)benzyl)-1,2,3,4-tetrahydroisoquinolin-6-yl)piperidine-2-carboxamide]",99.7
85.2,"CC(=O)N1CCCC[C@@H]1C(=O)Nc1cc(Cl)c2c(c1)CCN2Cc1ccccc1C(F)(F)F [Example 6, (R)-1-acetyl-N-(7-chloro-1-(2-(trifluoromethyl)benzyl)indolin-5-yl)piperidine-2-carboxamide]",91.6
96,"CC(=O)N1CCCC[C@@H]1C(=O)Nc1cc(Cl)c2c(c1)CCN2CCc1ccc(C(F)(F)F)cc1 [Example 7, (R)-1-acetyl-N-(7-chloro-1-(4-(trifluoromethyl)phenethyl)indolin-5-yl)piperidine-2-carboxamide]",98.6
